Two molecules from patent US7439362B2, “Piperazinyl-or piperidinylamine-sulfamic acid amides as inhibitors of steroid sulfatase” (Novartis AG, priority 2002, dated 2008) can be followed below.

The target in data set [1] is T1, steroid sulfatase in human skin homogenate (Homo sapiens, UniProt P08842).
T1 construct: Frozen specimens of human cadaver skin; from tissue; host or cells: human cadaver skin, minced and suspended in Triton X-100 buffer
T1 sequence (P08842 22-583): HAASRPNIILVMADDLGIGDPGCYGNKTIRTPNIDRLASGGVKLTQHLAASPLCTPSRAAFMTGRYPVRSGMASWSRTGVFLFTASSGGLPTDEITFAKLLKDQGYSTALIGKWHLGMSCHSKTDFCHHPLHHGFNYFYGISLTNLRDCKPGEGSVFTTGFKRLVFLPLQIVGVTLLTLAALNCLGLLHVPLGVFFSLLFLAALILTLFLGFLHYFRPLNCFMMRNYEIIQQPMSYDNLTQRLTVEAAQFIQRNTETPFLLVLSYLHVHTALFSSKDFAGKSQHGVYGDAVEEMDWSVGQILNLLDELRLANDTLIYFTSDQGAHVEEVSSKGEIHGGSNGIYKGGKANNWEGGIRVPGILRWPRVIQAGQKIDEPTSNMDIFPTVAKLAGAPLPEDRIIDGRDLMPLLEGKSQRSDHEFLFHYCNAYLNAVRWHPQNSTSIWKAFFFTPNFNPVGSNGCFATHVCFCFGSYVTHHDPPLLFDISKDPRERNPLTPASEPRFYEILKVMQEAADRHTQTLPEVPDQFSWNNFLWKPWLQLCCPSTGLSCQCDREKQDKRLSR
The experiment in a line: Assay Using Human Skin Homogenate ([3H]DHEAS cleavage). The class given is biochemical. As to conditions: human cadaver skin homogenate; DHEAS substrate; 18 hrs at 37° C. The protocol:
Frozen specimens of human cadaver skin (about 100 mg per sample) are minced Into small pieces (about 1×1 mm) using sharp scissors. The pieces obtained are suspended in ten volumes (w/w) of buffer (20 mM Tris-HCl, pH 7.5), containing 0.1% Triton X-100. Test compounds (e.g. compounds of the present invention) are added at graded concentrations from stock solutions In ethanol or DMSO. Second, DHEAS as the substrate is added (1 μC/ml [^3H]DHEAS, specific activity: about 60 Ci/mmol, and 20 μM unlabeled DHEAS).
Samples are incubated for 18 hrs at 37° C. At the end of the Incubation period, 50 μl of 1 M Tris, pH 10.4 and 3 ml of toluene are added. A 1-ml aliquot of the organic phase is removed and subjected to liquid scintillation counting. The determined dpm-values in the aliquots are converted to nmol of DHEA cleaved per g of skin per hour.

Data set [2] concerns the target T2, purified human steroid sulfatase (Homo sapiens, UniProt P08842).
T2 construct: Human placenta is obtained freshly after delivery; from tissue; host or cells: human placenta (microsomes, Triton X-100 extract, chromatographically purified)
T2 sequence (P08842 22-583): T1 sequence (P08842 22-583)
The experiment in a line: Assay of Human Steroid Sulfatase (4-methylumbelliferyl sulfate cleavage, fluorescence). The format is biochemical. Conditions: purified human placental enzyme; 4-methylumbelliferyl sulfate substrate; 37° C., 1 hour. The protocol:
Human placenta is obtained freshly after delivery and stripped of membranes and connective tissues. For storage, the material is frozen at −70° C. After thawing, all further steps are carried out at 4° C., while pH values are adjusted at 20° C. 400 g of the tissue is homogenized in 1.2 l of buffer A (50 mM Tris-HCl, pH 7.4, 0.25 M sucrose). The homogenate obtained is centrifuged at 10,000×g for 45 minutes. The supernatant is set aside and the pellet obtained is re-homogenized in 500 ml of buffer A. After centrifugation, the two supernatants obtained are combined and subjected to ultracentrifugation (100,000×g, 1 hour). The pellet obtained is resuspended in buffer A and centrifugation is repeated. The pellet obtained is suspended in 50 ml of 50 mM Tris-HCl, pH 7.4 and stored at −20° C. until further work-up. […]
It is known that purified human steroid sulfatase not only is capable to cleave steroid sulfates, but also readily cleaves aryl sulfates such as 4-methylumbelliferyl sulfate which is used in the present test system as an activity indicator. […]
Plates are incubated at 37° C. for 1 hour. […] Fluorescence intensity is determined in a Titertek Fluoroskan. […]
[formula] wherein I100 is the intensity observed in the absence of inhibitor and s is a slope factor. Estrone sulfamate is used as a reference compound and its IC50 value is determined in parallel to all other test compounds. […]

What is called IC50 is the concentration that gives 50% inhibition. Read a low IC50 as higher potency. One may read the melting point as the temperature, or range, at which the solid turns liquid. In the case of `NC(=O)c1ccc(C(F)(F)F)cc1N1CCC(NS(=O)(=O)NC(=O)c2cc(C(F)(F)F)cc(C(F)(F)F)c2)CC1` [Example 1, N-[[4-[1-(2-Aminocarbonyl-5-trifluoromethyl-phenyl)]-piperidinyl]-amino]-sulfonyl-3,5-bis-trifluoromethyl-benzamide], the melting point lay in the range of 192 to 195 °C. The same molecule had an IC50 in data set [1] of 0.03 to 0.27 µM.

Take `CC12CCC3c4ccc(OS(N)(=O)=O)cc4CCC3C1CCC2=O` (stereo not drawn) [estrone sulfamate]: the IC50 in data set [2] is around 0.06 µM.
